Results: patent publication US9765075B2, “Substituted bridged urea analogs as sirtuin modulators” (GLAXOSMITHKLINE LLC, priority 2013, dated 2017)
Numbering of substitutions follows the chain as printed.

Assays:
Experiment in all cases: SIRT1 activation dose-response, OAcADPr assay with Ac-p53(W5) substrate
Format in all cases: biochemical
full-length hSIRT1 WT = biological target: T1, full-length hSIRT1 WT (Homo sapiens, UniProt Q96EB6); settings: for EC50: hSIRT1 WT, activation dose-response, Ac-p53(W5) substrate
T1 construct: Full-length human SIRT1 (hSIRT1) proteins were expressed with a C-terminal His6 tag; His6 (C); made in house
T1 sequence (Q96EB6 1-747): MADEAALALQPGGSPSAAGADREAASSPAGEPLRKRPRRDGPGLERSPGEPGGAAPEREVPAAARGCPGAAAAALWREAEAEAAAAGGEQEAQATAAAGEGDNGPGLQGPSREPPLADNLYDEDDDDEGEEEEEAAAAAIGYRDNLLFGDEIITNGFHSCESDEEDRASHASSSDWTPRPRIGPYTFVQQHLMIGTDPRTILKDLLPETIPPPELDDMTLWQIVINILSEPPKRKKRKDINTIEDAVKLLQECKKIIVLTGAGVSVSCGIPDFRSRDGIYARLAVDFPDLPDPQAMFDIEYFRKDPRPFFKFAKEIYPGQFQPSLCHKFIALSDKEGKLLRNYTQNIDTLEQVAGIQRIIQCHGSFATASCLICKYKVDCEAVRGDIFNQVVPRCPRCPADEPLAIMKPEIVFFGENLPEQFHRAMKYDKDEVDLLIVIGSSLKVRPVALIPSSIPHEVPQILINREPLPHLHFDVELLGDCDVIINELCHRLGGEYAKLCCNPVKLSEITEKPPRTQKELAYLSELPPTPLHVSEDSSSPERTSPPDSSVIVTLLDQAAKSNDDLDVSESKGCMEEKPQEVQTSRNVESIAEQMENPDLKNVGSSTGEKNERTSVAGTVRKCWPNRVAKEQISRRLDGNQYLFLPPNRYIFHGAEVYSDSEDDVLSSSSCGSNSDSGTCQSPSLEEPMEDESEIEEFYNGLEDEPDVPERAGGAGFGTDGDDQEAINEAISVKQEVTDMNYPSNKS

full-length hSIRT1 E230A = biological target: T2, full-length hSIRT1 E230A (Homo sapiens, UniProt Q96EB6, E230A); settings: for EC50: hSIRT1 E230A, activation dose-response, Ac-p53(W5) substrate
T2 construct: His6 (C); made in house
T2 sequence (Q96EB6 1-747 E230A): T1 sequence (Q96EB6 1-747) with E230A

full-length hSIRT1 N226A = biological target: T3, full-length hSIRT1 N226A (Homo sapiens, UniProt Q96EB6, N226A); settings: for EC50: hSIRT1 N226A, activation dose-response, Ac-p53(W5) substrate
T3 construct: The following point mutants of full-length hSIRT1 were generated; His6 (C); made in house
T3 sequence (Q96EB6 1-747 N226A): T1 sequence (Q96EB6 1-747) with N226A

| EC50 fold shift (mutant EC50/wild-type EC50) (full-length hSIRT1 WT) | RVmax fold shift = (wild-type RVmax−1)/(mutant RVmax−1) (full-length hSIRT1 WT) | EC50 (full-length hSIRT1 WT) | EC50 fold shift (mutant EC50/wild-type EC50) (full-length hSIRT1 E230A) | RVmax fold shift = (wild-type RVmax−1)/(mutant RVmax−1) (full-length hSIRT1 E230A) | EC50 (full-length hSIRT1 E230A) | EC50 fold shift (mutant EC50/wild-type EC50) (full-length hSIRT1 N226A) | RVmax fold shift = (wild-type RVmax−1)/(mutant RVmax−1) (full-length hSIRT1 N226A) | EC50 (full-length hSIRT1 N226A) | SMILES |
| --- | --- | --- | --- | --- | --- | --- | --- | --- | --- |
| 1.00 | 1.00 | 480 nM | 1.11 | 2.39 | 530 nM | 2.15 | 1.34 | 1030 nM | Cc1cnc2c(NC(=O)N3c4nc(-c5cccc(C(F)(F)F)c5)ccc4N4CC[C@H]3C4)cccc2n1 [Example 8] |
| 1.00 | 1.00 | 2200 nM | 1.19 | 3.58 | 2610 nM | 1.78 | 1.32 | 3920 nM | O=C(Nc1ccccn1)N1c2nc(-c3cccc(C(F)(F)F)c3)ccc2N2CC[C@H]1C2 [Example 7] |
